± gives the expanded uncertainty stated by the source.
Key:
[1] = Liquid, Vibrating tube method
[2] = xn = mol fraction of the nth substance listed; conditions: Liquid, Vibrating tube method, x1 = 1

## OCCO [1,2-ethanediol]
[1]; 278.15 K, 101 kPa
  mass density: 1123.77 ± 0.33 kg/m3
[1]; 278.15 K, 10000 kPa
  mass density: 1127.65 ± 0.38 kg/m3
[1]; 278.15 K, 25000 kPa
  mass density: 1133.2 ± 0.47 kg/m3
[1]; 278.15 K, 50000 kPa
  mass density: 1141.71 ± 0.62 kg/m3
[1]; 278.15 K, 75000 kPa
  mass density: 1149.55 ± 0.78 kg/m3
[1]; 278.15 K, 100000 kPa
  mass density: 1157.24 ± 0.97 kg/m3
[1]; 288.15 K, 10000 kPa
  mass density: 1120.87 ± 0.37 kg/m3
[1]; 288.15 K, 25000 kPa
  mass density: 1126.51 ± 0.45 kg/m3
[1]; 288.15 K, 50000 kPa
  mass density: 1135.26 ± 0.6 kg/m3
[1]; 288.15 K, 75000 kPa
  mass density: 1143.65 ± 0.76 kg/m3
[1]; 288.15 K, 100000 kPa
  mass density: 1151.55 ± 0.94 kg/m3
[1]; 298.15 K, 10000 kPa
  mass density: 1113.97 ± 0.36 kg/m3
[1]; 298.15 K, 25000 kPa
  mass density: 1119.78 ± 0.44 kg/m3
[1]; 298.15 K, 50000 kPa
  mass density: 1128.78 ± 0.58 kg/m3
[1]; 298.15 K, 75000 kPa
  mass density: 1137.41 ± 0.74 kg/m3
[1]; 298.15 K, 100000 kPa
  mass density: 1145.51 ± 0.91 kg/m3
[1]; 308.15 K, 10000 kPa
  mass density: 1107.05 ± 0.36 kg/m3
[1]; 308.15 K, 25000 kPa
  mass density: 1112.97 ± 0.43 kg/m3
[1]; 308.15 K, 50000 kPa
  mass density: 1122.28 ± 0.56 kg/m3
[1]; 308.15 K, 75000 kPa
  mass density: 1131.41 ± 0.72 kg/m3
[1]; 308.15 K, 100000 kPa
  mass density: 1139.57 ± 0.88 kg/m3
[1]; 323.15 K, 101 kPa
  mass density: 1092.12 ± 0.3 kg/m3
[1]; 323.15 K, 50000 kPa
  mass density: 1112.75 ± 0.54 kg/m3
[1]; 323.15 K, 75000 kPa
  mass density: 1122.55 ± 0.68 kg/m3
[1]; 323.15 K, 100000 kPa
  mass density: 1130.66 ± 0.84 kg/m3

## C[S+](C)[O-] [dimethyl sulfoxide]
[1]; 298.15 K, 101 kPa
  mass density: 1095.36 ± 0.31 kg/m3
[1]; 298.15 K, 10000 kPa
  mass density: 1101.16 ± 0.35 kg/m3
[1]; 298.15 K, 25000 kPa
  mass density: 1109.51 ± 0.42 kg/m3
[1]; 298.15 K, 50000 kPa
  mass density: 1122.86 ± 0.57 kg/m3
[1]; 308.15 K, 101 kPa
  mass density: 1085.36 ± 0.3 kg/m3
[1]; 308.15 K, 10000 kPa
  mass density: 1091.6 ± 0.34 kg/m3
[1]; 308.15 K, 25000 kPa
  mass density: 1100.65 ± 0.41 kg/m3
[1]; 308.15 K, 50000 kPa
  mass density: 1115.13 ± 0.54 kg/m3
[1]; 308.15 K, 75000 kPa
  mass density: 1128.21 ± 0.7 kg/m3
[1]; 308.15 K, 100000 kPa
  mass density: 1136.76 ± 0.87 kg/m3
[1]; 323.15 K, 101 kPa
  mass density: 1070.28 ± 0.29 kg/m3
[1]; 323.15 K, 10000 kPa
  mass density: 1076.9 ± 0.32 kg/m3
[1]; 323.15 K, 25000 kPa
  mass density: 1086.87 ± 0.38 kg/m3
[1]; 323.15 K, 50000 kPa
  mass density: 1102.44 ± 0.51 kg/m3
[1]; 323.15 K, 75000 kPa
  mass density: 1115.12 ± 0.66 kg/m3
[1]; 323.15 K, 100000 kPa
  mass density: 1123.25 ± 0.81 kg/m3

## C[S+](C)[O-] [dimethyl sulfoxide] + OCCO
[2]; 298.15 K, 101 kPa
  mass density: 1095.36 ± 0.31 kg/m3
[2]; 298.15 K, 10000 kPa
  mass density: 1101.16 ± 0.35 kg/m3
[2]; 298.15 K, 25000 kPa
  mass density: 1109.51 ± 0.42 kg/m3
[2]; 298.15 K, 50000 kPa
  mass density: 1122.86 ± 0.57 kg/m3
[2]; 308.15 K, 101 kPa
  mass density: 1085.36 ± 0.3 kg/m3
[2]; 308.15 K, 10000 kPa
  mass density: 1091.6 ± 0.34 kg/m3
[2]; 308.15 K, 25000 kPa
  mass density: 1100.65 ± 0.41 kg/m3
[2]; 308.15 K, 50000 kPa
  mass density: 1115.13 ± 0.54 kg/m3
[2]; 308.15 K, 75000 kPa
  mass density: 1128.21 ± 0.7 kg/m3
[2]; 308.15 K, 100000 kPa
  mass density: 1136.76 ± 0.87 kg/m3
[2]; 323.15 K, 101 kPa
  mass density: 1070.28 ± 0.29 kg/m3
[2]; 323.15 K, 10000 kPa
  mass density: 1076.9 ± 0.32 kg/m3
[2]; 323.15 K, 25000 kPa
  mass density: 1086.87 ± 0.38 kg/m3
[2]; 323.15 K, 50000 kPa
  mass density: 1102.44 ± 0.51 kg/m3
[2]; 323.15 K, 75000 kPa
  mass density: 1115.12 ± 0.66 kg/m3
[2]; 323.15 K, 100000 kPa
  mass density: 1123.25 ± 0.81 kg/m3
